Test results as given in US7109332B2, “2,4-dioxo-3-quinazolinylaryl sulfonylureas” (Portola Pharmaceuticals, Inc., priority 2003, dated 2006).

Tested on: ADP-induced human platelet aggregation
Assay: Inhibition of ADP-mediated platelet aggregation in vitro (PRP assay)
Format: cell-based
Details: 2 μM ADP, 96-well microtiter assay
Protocol: I. Inhibition of ADP-Mediated Platelet Aggregation In Vitro
The effect of testing the compound according to the invention on ADP-induced human platelet aggregation is preferably assessed in 96-well microtiter assay (see generally the procedures in Jantzen, H. M. et al. (1999) Thromb. Hemost. 81:111–117). Human venous blood is collected from healthy, drug-free volunteers into ACD (85 mM sodium citrate, 111 mM glucose, 71.4 mM citric acid) containing PGI2 (1.25 ml ACD containing 1.6 μM PGI2/10 ml blood; PGI2 was from Sigma, St. Louis, Mo.). Platelet-rich plasma (PRP) is prepared by centrifugation at 160×g for 20 minutes at room temperature. Washed platelets are prepared by centrifuging PRP for 10 minutes at 730×g and resuspending the platelet pellet in CGS (13 mM sodium citrate, 30 mM glucose, 120 mM NaCl; 2 ml CGS/10 ml original blood volume) containing 1U/ml apyrase (grade V, Sigma, St. Louis, Mo.). After incubation at 37° C. for 15 minutes, the platelets are collected by centrifugation at 730×g for 10 minutes and resuspended at a concentration of 3×10^8 platelets/ml in Hepes-Tyrode's buffer (10 mM Hepes, 138 mM NaCl, 5.5 mM glucose, 2.9 mM KCl, 12 mM NaHCO3, pH 7.4) containing 0.1% bovine serum albumin, 1 mM CaCl2 and 1 mM MgCl2. This platelet suspension is kept >45 minutes at 37° C. before use in aggregation assays.
Inhibition of ADP-dependent aggregation is preferably determined in 96-well flat-bottom microtiter plates using a microtiter plate shaker and plate reader similar to the procedure described by Frantantoni et al., Am. J. Clin. Pathol. 94, 613 (1990). All steps are performed at room temperature. The total reaction volume of 0.2 ml/well includes in Hepes-Tyrodes buffer/0.1% BSA: 4.5×10^7 apyrase-washed platelets, 0.5 mg/ml human fibrinogen (American Diagnostica, Inc., Greenwich, Conn.), serial dilutions of test compounds (buffer for control wells) in 0.6% DMSO. After about 5 minutes preincubation at room temperature, ADP is added to a final concentration of 2 μM which induces submaximal aggregation. Buffer is added instead of ADP to one set of control wells (ADP^− control). The OD of the samples is then determined at 490 nm using a microtiter plate reader (Softmax, Molecular Devices, Menlo Park, Calif.) resulting in the 0 minute reading. The plates are then agitated for 5 min on a microtiter plate shaker and the 5 minute reading is obtained in the plate reader. Aggregation is calculated from the decrease of OD at 490 nm at t=5 minutes compared to t=0 minutes and is expressed as % of the decrease in the ADP control samples after correcting for changes in the unaggregated control samples.
The table below provides activity for selected compounds of the invention, evaluated as described above. In the table below, activity in the PRP assay is provided as follows: +++, IC50<10 μM; ++, 10 μM<IC50<30 μM; and +, IC50>30 μM.

Row | Compound | IC50
1 | O=C(Nc1ccc(-n2c(=O)[nH]c3cc(NCc4ccsc4)ccc3c2=O)cc1)NS(=O)(=O)c1ccc(Cl)s1 [Example 57] | < 10 µM
2 | Cc1csc(CNc2ccc3c(=O)n(-c4ccc(NC(=O)NS(=O)(=O)c5ccc(Cl)s5)cc4)c(=O)[nH]c3c2)c1 [Example 53] | 10 to 30 µM
3 | COc1cccc(CNc2ccc3c(=O)n(-c4ccc(NC(=O)NS(=O)(=O)c5ccc(Cl)s5)cc4)c(=O)[nH]c3c2)c1 [Example 41] | 10 to 30 µM
4 | O=C(Nc1ccc(-n2c(=O)[nH]c3cc(NCc4ccc(Cl)cc4)ccc3c2=O)cc1)NS(=O)(=O)c1ccc(Cl)s1 [Example 12] | < 10 µM
5 | O=C(Nc1ccc(-n2c(=O)[nH]c3cc(NCc4ccc(Cl)o4)ccc3c2=O)cc1)NS(=O)(=O)c1ccc(Cl)s1 [Example 72] | 10 to 30 µM
6 | O=C(Nc1ccc(-n2c(=O)[nH]c3cc(NCc4nc5ccccc5s4)ccc3c2=O)cc1)NS(=O)(=O)c1ccc(Cl)s1 [Example 94] | > 30 µM
7 | O=C(Nc1ccc(-n2c(=O)[nH]c3cc(NCc4ccc(F)cc4)ccc3c2=O)cc1)NS(=O)(=O)c1ccc(Cl)s1 [Example 21] | < 10 µM
8 | Cc1cc(NC(=O)NS(=O)(=O)c2cccs2)ccc1-n1c(=O)[nH]c2cc(NCc3ccc(Cl)cc3)ccc2c1=O [Example 16] | < 10 µM
9 | O=C(Nc1ccc(-n2c(=O)[nH]c3cc(NCc4ccc(F)cc4F)ccc3c2=O)cc1)NS(=O)(=O)c1ccc(Cl)s1 [Example 102] | > 30 µM
10 | O=C(Nc1ccc(-n2c(=O)[nH]c3cc(NCc4ccc(Cl)s4)ccc3c2=O)cc1)NS(=O)(=O)c1ccc(Cl)s1 [Example 51] | < 10 µM
11 | O=C(Nc1ccc(-n2c(=O)[nH]c3cc(NCc4ccccc4)ccc3c2=O)cc1)NS(=O)(=O)c1ccc(Cl)s1 [Example 3] | < 10 µM
12 | Cc1nc(C)c(CNc2ccc3c(=O)n(-c4ccc(NC(=O)NS(=O)(=O)c5ccc(Cl)s5)cc4)c(=O)[nH]c3c2)s1 [Example 65] | > 30 µM
13 | Cc1cc(-n2c(=O)[nH]c3cc(NCc4ccc(F)cc4)ccc3c2=O)ccc1NC(=O)NS(=O)(=O)c1ccc(Cl)s1 [Example 5, 1-(4-(7-(4-fluorobenzylamino)-2,4-dioxo-1,2-dihydroquinazolin-3(4H)-yl)-2-methylphenyl)-3-(5-chlorothiophen-2-ylsulfonyl)urea] | < 10 µM
14 | O=C(Nc1ccc(-n2c(=O)[nH]c3cc(NCc4cncs4)ccc3c2=O)cc1)NS(=O)(=O)c1ccc(Cl)s1 [Example 61] | 10 to 30 µM
15 | O=C(NS(=O)(=O)c1ccc(Cl)s1)c1ccc(-n2c(=O)[nH]c3cc(NCc4ccc(F)cc4)ccc3c2=O)cc1 [Example 106, 4-(7-(4-fluorobenzylamino)-2,4-dioxo-1,2-dihydroquinazolin-3(4H)-yl)-N-(5-chlorothiophen-2-ylsulfonyl)benzamide] | < 10 µM
16 | Cc1c(F)cccc1CNc1ccc2c(=O)n(-c3ccc(NC(=O)NS(=O)(=O)c4ccc(Cl)s4)cc3)c(=O)[nH]c2c1 [Example 100] | < 10 µM
17 | O=C(NS(=O)(=O)c1ccc(Cl)s1)c1ccc(-n2c(=O)[nH]c3cc(NCc4ccc(F)cc4)ccc3c2=O)cc1F [Example 113, 4-(7-(4-fluorobenzylamino)-2,4-dioxo-1,2-dihydroquinazolin-3(4H)-yl)-N-(5-chlorothiophen-2-ylsulfonyl)-2-fluorobenzamide] | < 10 µM
18 | Cn1ccnc1CNc1ccc2c(=O)n(-c3ccc(NC(=O)NS(=O)(=O)c4ccc(Cl)s4)cc3)c(=O)[nH]c2c1 [Example 77] | > 30 µM
